The subject of test [1] is Erythrocyte. Kind of test: Antioxidant activity in Wistar rat erythrocytes assessed as prolongation of initial inhibition period-lag phase of t-BuOOH-induced hemolysis at 100 uM preincubated for 30 mins before induction measured up to 5 hrs by spectrophotometry. The test is classed as functional, cell-based.
Test [2] concerns Erythrocyte. The test is described as follows: Antioxidant activity in Wistar rat erythrocytes assessed as prolongation of initial inhibition period-lag phase of t-BuOOH-induced hemolysis at 10 mM preincubated for 30 mins before induction measured up to 5 hrs by spectrophotometry. The test is classed as functional, cell-based.
Test [3] has as its system Erythrocyte. Kind of test: Antioxidant activity in Wistar rat erythrocytes assessed as prolongation of initial inhibition period-lag phase of AAPH-induced hemolysis at 100 uM preincubated for 30 mins before induction measured up to 5 hrs by spectrophotometry. The test is classed as functional, cell-based.
Test [4] has as its system Rattus norvegicus. The test is described as follows: Antidiabetic activity in streptozotocin-induced diabetic rat assessed as reduction in blood glucose level at 25 mg/kg intra-gastrically administered bid for 4 days followed by single dose on 5th day measured after 3 hrs final dose. The test is classed as functional, organism-based. Further details: dose 25 mg/kg.
In test [5] the test system is Rattus norvegicus. The test is described as follows: Inhibition of sorbitol accumulation in streptozotocin-induced diabetic rat erythrocytes at 25 mg/kg intra-gastrically bid for 4 days followed by single dose on 5th day measured after 3 hrs final dose by resazurin reduction assay. Further details: dose 25 mg/kg. The test is classed as functional, organism-based. (In general: Alamar Blue is a resazurin reagent that responds to reducing activity.)

The test system of test [6] is Erythrocyte. The test is described as follows: Antioxidant activity in Wistar rat erythrocytes assessed as prolongation of initial inhibition period-lag phase of t-BuOOH-induced hemolysis at 2.5 uM preincubated for 30 mins before induction measured up to 5 hrs by spectrophotometry. The test is classed as functional, cell-based.
The subject of test [7] is Erythrocyte. Kind of test: Antioxidant activity in Wistar rat erythrocytes assessed as prolongation of initial inhibition period-lag phase of t-BuOOH-induced hemolysis at 100 uM treated 30 mins after induction measured up to 5 hrs by spectrophotometry. The test is classed as functional, cell-based.
Test [8] has as its target Aldo-keto reductase family 1 member B1 (Homo sapiens, UniProt P15121). Kind of test: Inhibition of aldose reductase.

The source made the active and inactive calls. The rule behind the calls is not given here.

For `COc1ccc2[nH]cc(CCNC(C)=O)c2c1`, the result with Erythrocyte [1] was inactive.
As for `NCCC(=O)N[C@@H](Cc1c[nH]cn1)C(=O)O`, in the test with Erythrocyte [2], the outcome was Active.
For `Cc1c(C)c2c(c(C)c1O)CCC(C)(C(=O)O)O2` (centres undefined), the result in the test on Erythrocyte [3] was Active.
Turning to `O=C(O)Cc1ccc2[nH]c3c(c2c1)CN(Cc1ccccc1)CC3`, the outcome with Rattus norvegicus [4] and in the test with Erythrocyte [7] was inactive. The inhibition entry with Rattus norvegicus [5] was “Active”. The result in the test on Erythrocyte [6] and in the test on Erythrocyte [3] was Active. Besides, the IC50 in test [8] turned out to be 18.2 µM.

As usually defined, the IC50 is the concentration at which inhibition is half-maximal. A lower IC50 goes with higher potency.

The values above are taken from ChEMBL document CHEMBL1921687, “(2-Benzyl-2,3,4,5-tetrahydro-1H-pyrido[4,3-b]indol-8-yl)-acetic acid: an aldose reductase inhibitor and antioxidant of zwitterionic nature” (Bioorg Med Chem, 2011).
